“Also recorded” adds a separate entry of the source. Like-named read-outs stand apart in the source and are kept apart here. Non-standard residues stand in square brackets, D forms with d. Residues, ends and D or L forms follow the SMILES beside them. dPhe(4-tBu) = CC(C)(C)c1ccc(C[C@@H](N)C(=O)O)cc1; dPhe(3,4-Cl2) = N[C@H](Cc1ccc(Cl)c(Cl)c1)C(=O)O; dPhe(4-CF3) = N[C@H](Cc1ccc(C(F)(F)F)cc1)C(=O)O; dPhe(4-CN) = N#Cc1ccc(C[C@@H](N)C(=O)O)cc1; dBip = N[C@H](Cc1ccc(-c2ccccc2)cc1)C(=O)O; dPhe(4-Br) = N[C@H](Cc1ccc(Br)cc1)C(=O)O; dPhe(4-Me) = Cc1ccc(C[C@@H](N)C(=O)O)cc1; dPhe(4-F) = N[C@H](Cc1ccc(F)cc1)C(=O)O; Tic = O=C(O)[C@@H]1Cc2ccccc2CN1
Legend:
mMC4R [1] = molecular target: T1, mMC4R (Mus musculus, UniProt P56450); experiment: β-galactosidase cAMP reporter assay, agonist pharmacology in HEK293 cells stably expressing mMC4R; assay type: cell-based; settings: for mMC4R percent maximal stimulation relative to NDP-MSH (partial agonist): relative to maximal NDP-MSH signal; for mMC4R agonist activity: full agonist = >90% of maximal NDP-MSH signal, inactive = <20% at 100 µM
T1 construct: expressed in transfected cells
T1 sequence (P56450 whole entry): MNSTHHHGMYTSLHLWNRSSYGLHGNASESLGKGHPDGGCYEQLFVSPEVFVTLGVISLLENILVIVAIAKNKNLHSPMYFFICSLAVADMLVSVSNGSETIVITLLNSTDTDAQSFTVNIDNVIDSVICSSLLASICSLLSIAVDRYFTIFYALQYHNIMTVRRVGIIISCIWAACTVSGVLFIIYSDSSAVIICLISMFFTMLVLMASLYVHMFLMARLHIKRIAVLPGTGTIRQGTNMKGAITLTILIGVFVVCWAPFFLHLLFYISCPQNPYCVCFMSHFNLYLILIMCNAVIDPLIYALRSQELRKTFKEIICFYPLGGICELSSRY
Method: (§1) Peptides were synthesized manually with microwave irradiation using standard Fmoc synthesis techniques and purified using semi-preparative reverse-phase high-pressure liquid-chromatography (RP-HPLC). […] Agonist pharmacology was measured at the mMC3R, mMC4R, and mMC5R using a colorimetric β-galactosidase assay that measures cAMP production. Agonist pharmacology was assessed at the mMC1R using the Amplified Luminescent Proximity Homogenous Assay Screen (AlphaScreen, PerkinElmer), as previously described. The MC2R is only stimulated by ACTH, and was not examined in this study. For both assays, HEK293 cells stably expressing the mMCRs were used.
(§2) The peptide ligands were assessed for pharmacological activity at the mMC3R, mMC4R, and mMC5R using a β-galactosidase assay. Briefly, HEK293 cells stably expressing the MC3R, MC4R, or MC5R were plated into a 10 cm dish and grown to 40% confluency. The HEK293 cells were transfected with 4 µg of CRE/β-galactosidase using the calcium-phosphate method, as previously described. Cells (5000 to 15,000) were plated on collagen-treated Nunclon Delta Surface 96-well plates (Thermo Fisher Scientific) and incubated at 37 °C with 5% CO2. […] Plates were stored at −80 °C for up to two weeks.
(§3) Thawed plates were assessed for protein content and assayed for β-galactosidase activity. Relative protein concentration was determined by adding 10 µL of cell lysate to 200 µL of a 1:5 dilution of Bio Rad G250 protein dye in a 96-well plate.
(§4) The EC50 and pA2 values represent the mean of duplicate replicates performed in at least three independent experiments. The EC50 and pA2 values and their associated standard errors (SEM) were determined by fitting the data to a nonlinear least-squares analysis using the PRISM program (v4.0, GraphPad Inc., San Diego, CA, USA). The ligands were assayed as TFA salt and not corrected for peptide content.

mMC5R = molecular target: T2, mMC5R (Mus musculus, UniProt P41149); experiment: β-galactosidase cAMP reporter assay, agonist pharmacology in HEK293 cells stably expressing mMC5R; assay type: cell-based; settings: for decreased agonist potency at the mMC5R compared to KNS2-22-4: ratio of EC50 to KNS2-22-4; for EC50: β-galactosidase cAMP, HEK293, mean ± SEM, apparent EC50 for partial agonists
T2 construct: expressed in transfected cells
T2 sequence (P41149 whole entry): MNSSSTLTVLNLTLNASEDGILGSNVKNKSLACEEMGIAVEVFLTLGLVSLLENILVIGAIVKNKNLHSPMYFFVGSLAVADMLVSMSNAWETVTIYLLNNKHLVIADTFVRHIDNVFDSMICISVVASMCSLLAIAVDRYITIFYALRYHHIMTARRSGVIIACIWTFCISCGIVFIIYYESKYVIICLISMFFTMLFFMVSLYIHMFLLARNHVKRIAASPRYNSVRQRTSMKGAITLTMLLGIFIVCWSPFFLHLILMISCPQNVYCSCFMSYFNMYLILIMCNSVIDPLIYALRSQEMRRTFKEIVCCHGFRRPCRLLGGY
Method: as §1, §2, §3, §4

mMC3R = molecular target: T3, mMC3R (Mus musculus, UniProt P33033); experiment: β-galactosidase cAMP reporter assay, agonist pharmacology in HEK293 cells stably expressing mMC3R; assay type: cell-based; settings: for decreased agonist potency at the mMC3R compared to KNS2-22-4: ratio of EC50 to KNS2-22-4; for EC50: β-galactosidase cAMP, HEK293, mean ± SEM, apparent EC50 for partial agonists; for agonist selectivity for the mMC3R over the mMC4R: mMC3R versus mMC4R agonist potency; for mMC3R percent maximal stimulation relative to NDP-MSH (partial agonist): relative to maximal NDP-MSH signal
T3 construct: expressed in transfected cells
T3 sequence (P33033 whole entry): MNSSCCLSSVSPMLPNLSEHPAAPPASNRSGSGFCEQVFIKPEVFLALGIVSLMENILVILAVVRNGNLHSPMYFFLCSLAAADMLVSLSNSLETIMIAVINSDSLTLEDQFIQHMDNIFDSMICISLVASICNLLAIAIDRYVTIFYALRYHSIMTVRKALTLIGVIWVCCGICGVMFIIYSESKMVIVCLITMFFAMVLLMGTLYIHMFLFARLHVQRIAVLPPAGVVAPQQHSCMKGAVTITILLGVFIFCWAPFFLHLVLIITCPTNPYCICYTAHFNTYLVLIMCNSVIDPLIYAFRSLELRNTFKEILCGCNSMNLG
Method: as §1, §2, §3, §4

mMC1R = molecular target: T4, mMC1R (Mus musculus, UniProt Q01727); experiment: AlphaScreen cAMP assay, agonist pharmacology in HEK293 cells stably expressing mMC1R; assay type: cell-based; settings: for EC50: AlphaScreen cAMP, HEK293, mean ± SEM, at least three experiments; for decreased agonist potency at the mMC1R compared to KNS2-22-4: ratio of EC50 to KNS2-22-4; for potency increase at the mMC1R relative to Ac-His-DPhe-Arg-Trp-NH2: compared with KNS2-153
T4 construct: expressed in transfected cells
T4 sequence (Q01727 whole entry): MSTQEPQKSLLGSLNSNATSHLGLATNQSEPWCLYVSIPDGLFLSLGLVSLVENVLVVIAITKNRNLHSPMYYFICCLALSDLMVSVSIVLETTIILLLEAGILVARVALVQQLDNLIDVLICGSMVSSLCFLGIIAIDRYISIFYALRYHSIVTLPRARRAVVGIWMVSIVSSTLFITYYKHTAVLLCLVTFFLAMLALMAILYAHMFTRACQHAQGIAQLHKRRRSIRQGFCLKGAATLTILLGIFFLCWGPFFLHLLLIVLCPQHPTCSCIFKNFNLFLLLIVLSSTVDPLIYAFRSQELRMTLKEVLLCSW
Method: as §1
Peptide ligands were dissolved in DMSO at stock concentrations of 10^−2 M. To assess the pharmacological activity of the tetrapeptides at the mMC1R, HEK293 cells stably expressing the mMC1R were stimulated with the ligands using the cAMP AlphaScreen assay (PerkinElmer) according to the manufacturer’s instruction and as previously described.
Cells were dislodged with Versene (Gibco) at 37 °C, and 10,000 cells/well were plated in a 384-well plate (Optiplate) with freshly made stimulation buffer (Hank’s Balanced Salt Solution (HBSS, 1×), 0.5 mM 3-isobutyl-1-methylxanthine (IBMX), 5 mM HEPES, and 0.1% bovine serum albumin (BSA), pH = 7.4) with 0.5 μg anti-cAMP acceptor beads per well.
Plates were incubated for an additional 2 h in the dark. Post incubation, the plates were read by an EnSpire plate reader (PerkinElmer, Waltham, MA, USA).
as §4

MC4R = settings: partial stimulation, % efficacy of NDP-MSH; cited from earlier work
mMC4R [2] = molecular target: T1, mMC4R; experiment: β-galactosidase cAMP reporter assay, antagonist Schild analysis with NDP-MSH as agonist; assay type: cell-based; settings: for mMC4R pA2: Schild analysis, <5.5 = no antagonist potency at highest range (10,000, 5000, 1000, 500 nM); for mMC4R pA2 / mMC4R antagonist activity: agonist NDP-MSH; for mMC4R antagonist activity: Schild design, in the concentrations assayed
Method: as §1, §2, §3, §4

Row | Compound | EC50 (mMC4R [1]) | mMC4R percent maximal stimulation relative to NDP-MSH (partial agonist) (mMC4R [1]) | decreased agonist potency at the mMC5R compared to KNS2-22-4 (mMC5R) | EC50 (mMC5R) | decreased agonist potency at the mMC3R compared to KNS2-22-4 (mMC3R) | EC50 (mMC3R) | EC50 (mMC1R) | MC4R efficacy relative to NDP-MSH (MC4R) | mMC4R agonist activity (mMC4R [1]) | Kb (mMC4R [2]) | mMC4R pA2 (mMC4R [2]) | agonist selectivity for the mMC3R over the mMC4R (mMC3R) | decreased agonist potency at the mMC1R compared to KNS2-22-4 (mMC1R) | mMC5R agonist efficacy (mMC5R; full agonist = >90% of maximal NDP-MSH signal) | mMC5R percent maximal stimulation relative to NDP-MSH (partial agonist) (mMC5R; relative to maximal NDP-MSH signal) | mMC3R percent maximal stimulation relative to NDP-MSH (partial agonist) (mMC3R) | potency increase at the mMC1R relative to Ac-His-DPhe-Arg-Trp-NH2 (mMC1R) | mMC4R antagonist activity (mMC4R [2]) | Kb (mMC4R [2]; read-out: mMC4R pA2 (converted))
1 | CC(=O)N[C@@H](Cc1c[nH]cn1)C(=O)N[C@@H](CCCNC(=N)N)C(=O)N[C@H](Cc1ccc(F)cc1)C(=O)N1Cc2ccccc2C[C@H]1C(N)=O [KNS2-22-2, Ac-His-Arg-(pF)DPhe-Tic-NH2] (Ac-HR[dPhe(4-F)][Tic]-NH2) | 560 nM | 70 % NDP | 14 fold | 70 ± 40 nM | 30 fold | 450 ± 70 nM | 1.8 ± 0.7 nM |  |  |  |  |  |  |  |  |  |  |  | 
2 | Ac-Val-Gln-(pI)DPhe-DTic-NH2 |  |  |  |  |  |  |  | less than 50% |  |  |  |  |  |  |  |  |  |  | 
3 | CC(=O)N[C@@H](Cc1c[nH]cn1)C(=O)N[C@@H](CCCNC(=N)N)C(=O)N[C@H](Cc1ccc(Cl)c(Cl)c1)C(=O)N1Cc2ccccc2C[C@H]1C(N)=O [KNS2-23-4, Ac-His-Arg-(3,4-diCl)DPhe-Tic-NH2] (Ac-HR[dPhe(3,4-Cl2)][Tic]-NH2) | > 100000 nM |  | 14 fold | 70 ± 7 nM | 30 fold | 400 ± 100 nM | 5 ± 2 nM |  | did not result in stimulation | 708 nM | 6.2 | at least 100 fold | 7 fold |  |  |  |  |  | 
4 | CC(=O)N[C@@H](Cc1c[nH]cn1)C(=O)N[C@@H](CCCNC(=N)N)C(=O)N[C@H](Cc1ccc(C(F)(F)F)cc1)C(=O)N1Cc2ccccc2C[C@H]1C(N)=O [KNS2-23-6, Ac-His-Arg-(pCF3)DPhe-Tic-NH2] (Ac-HR[dPhe(4-CF3)][Tic]-NH2) | 600 nM | 20 % NDP |  | 13 ± 4 nM | 7 fold | 90 ± 30 nM | 5 ± 1 nM |  |  | 316 nM | 6.5 |  | 7 fold |  |  |  |  |  | 
5 | CC(=O)N[C@@H](Cc1c[nH]cn1)C(=O)N[C@@H](CCCNC(=N)N)C(=O)N[C@H](Cc1ccccc1)C(=O)N1Cc2ccccc2C[C@H]1C(N)=O [KNS3-10, Ac-His-Arg-DPhe-Tic-NH2] (Ac-HR[dF][Tic]-NH2) | 3000 ± 2000 nM |  | 5 fold | 200 nM | 70 fold | 900 nM | 4.6 ± 0.4 nM |  | full agonist efficacy; also recorded: Full agonism |  |  |  | 6 fold | not a full agonist | 65 % NDP | 85 % NDP |  |  | 
6 | CC(=O)N[C@@H](Cc1c[nH]cn1)C(=O)N[C@@H](CCCNC(=N)N)C(=O)N[C@H](Cc1ccc(Br)cc1)C(=O)N1Cc2ccccc2C[C@H]1C(N)=O [KNS2-22-3, Ac-His-Arg-(pBr)DPhe-Tic-NH2] (Ac-HR[dPhe(4-Br)][Tic]-NH2) | 290 nM | 55 % NDP |  | 9.7 ± 0.5 nM |  | 90 ± 20 nM | 0.7 ± 0.3 nM |  |  |  |  |  |  |  |  |  | ≥ 10 fold |  | 
7 | CC(=O)N[C@@H](Cc1c[nH]cn1)C(=O)N[C@@H](CCCNC(=N)N)C(=O)N[C@H](Cc1ccc(O)cc1)C(=O)N1Cc2ccccc2C[C@H]1C(N)=O [KNS2-23-9, Ac-His-Arg-DTyr-Tic-NH2] (Ac-HR[dY][Tic]-NH2) | > 100000 nM |  |  | 1000 ± 500 nM |  | 4200 nM | 40 ± 10 nM |  | did not possess agonist or antagonist activity |  |  |  |  |  |  | 85 % NDP |  | did not possess agonist or antagonist activity | > 3160 nM
8 | CC(=O)N[C@@H](Cc1c[nH]cn1)C(=O)N[C@@H](CCCNC(=N)N)C(=O)N[C@H](Cc1ccc(C(C)(C)C)cc1)C(=O)N1Cc2ccccc2C[C@H]1C(N)=O [KNS2-23-3, Ac-His-Arg-(ptBu)DPhe-Tic-NH2] (Ac-HR[dPhe(4-tBu)][Tic]-NH2) | > 100000 nM | < 20 % NDP |  | 3.4 ± 0.3 nM |  | 13 nM | 9 ± 3 nM |  |  | 158 nM | 6.8 | at least 100 fold | 13 fold |  |  | 85 % NDP |  |  | 
9 | CC(=O)N[C@@H](Cc1c[nH]cn1)C(=O)N[C@@H](CCCNC(=N)N)C(=O)N[C@H](Cc1ccc(C)cc1)C(=O)N1Cc2ccccc2C[C@H]1C(N)=O [KNS2-23-7, Ac-His-Arg-(pMe)DPhe-Tic-NH2] (Ac-HR[dPhe(4-Me)][Tic]-NH2) | 700 nM | 50 % NDP |  | 17 ± 4 nM | 8 fold | 110 ± 20 nM | 1 ± 0.3 nM |  |  |  |  |  |  |  |  |  | ≥ 10 fold |  | 
10 | CC(=O)N[C@@H](Cc1c[nH]cn1)C(=O)N[C@@H](CCCNC(=N)N)C(=O)N[C@H](Cc1ccc(-c2ccccc2)cc1)C(=O)N1Cc2ccccc2C[C@H]1C(N)=O [KNS2-23-1, Ac-His-Arg-DBip-Tic-NH2] (Ac-HR[dBip][Tic]-NH2) | 1400 nM | 45 % NDP |  | 7.6 ± 0.7 nM |  | 14 ± 2 nM | 0.6 ± 0.1 nM |  |  |  | 5.9 ± 0.2 | at least 100 fold |  |  |  |  | ≥ 10 fold |  | 
11 | CC(=O)N[C@@H](Cc1c[nH]cn1)C(=O)N[C@@H](CCCNC(=N)N)C(=O)N[C@H](Cc1ccc(C#N)cc1)C(=O)N1Cc2ccccc2C[C@H]1C(N)=O [KNS2-23-8, Ac-His-Arg-(pCN)DPhe-Tic-NH2] (Ac-HR[dPhe(4-CN)][Tic]-NH2) |  |  |  | 500 ± 100 nM |  | 4000 nM | 27 ± 6 nM |  |  | > 3160 nM |  |  |  |  |  | 75 % NDP |  | did not result in antagonist activity | 

Reference: article PMC6515519, “Structure–Activity Relationships of the Tetrapeptide Ac-His-Arg-(pI)DPhe-Tic-NH2 at the Mouse Melanocortin Receptors: Modification at the (pI)DPhe Position Leads to mMC3R Versus mMC4R Selective Ligands” (Molecules, 2019)
